Results: ChEMBL document CHEMBL4411344, “Synthesis and biological evaluation of new long-chain squaramides as anti-chagasic agents in the BALB/c mouse model” (Bioorg Med Chem, 2019)
Active and inactive are the calls of the source. No cut-off for these calls is given here.

Assays:
[1] = tested on: Trypanosoma cruzi; test: (§1) Antitrypanosomal activity against Trypanosoma cruzi MHOM/Pe/2011/Arequipa DTU 5 trypomastigotes infected in Balb/c mouse assessed as reduction in parasitaemia reactivation at 20 mg/kg, po pretreated once daily for 5 consecutive days starting from day 75 post infection followed by cyclophosphamide-induced immunosuppression on day 100 post infection measured within 1 week post immunosuppression by Neubauer chamber method; assay type: functional; parameters: scale not given: the % may be the effect or the level left
[2] = tested on: Trypanosoma cruzi; test: as §1, with “in Ig-G level in serum” for “in parasitaemia reactivation”, “measured on day 127” for “measured within 1 week”, “post infection” for “post immunosuppression”, “by ELISA” for “by Neubauer chamber method”; assay type: functional, organism-based
[3] = tested on: Trypanosoma cruzi; test: as §1, with “as parasite-free lungs” for “as reduction in parasitaemia reactivation”, “measured on day 127” for “measured within 1 week”, “post infection” for “post immunosuppression”, “by PCR” for “by Neubauer chamber”; assay type: functional
[4] = Nephrotoxicity in Balb/c mouse infected with Trypanosoma cruzi MHOM/Pe/2011/Arequipa DTU 5 trypomastigotes assessed as decrease in serum urea level at 20 mg/kg, po once daily for 5 consecutive days starting from day 10 post infection measured on day 16 post infection relative to control; assay type: toxicity, organism-based; conditions: in vivo
[5] = (§2) Hepatotoxicity in Balb/c mouse infected with Trypanosoma cruzi MHOM/Pe/2011/Arequipa DTU 5 trypomastigotes assessed as increase in ratio of serum AST to GOT level at 20 mg/kg, po once daily for 5 consecutive days starting from day 75 post infection measured on day 81 post infection relative to control; assay type: toxicity, organism-based; conditions: in vivo
[6] = tested on: Trypanosoma cruzi; test: Antitrypanosomal activity against Trypanosoma cruzi MHOM/Pe/2011/Arequipa DTU 5 trypomastigotes infected in Balb/c mouse assessed as reduction in splenomegaly at 20 mg/kg, po once daily for 5 consecutive days starting from day 75 post infection measured on day 127 post infection relative to control; assay type: functional; parameters: scale not given: the % may be the effect or the level left
[7] = as §2, with “change” for “increase”, “ALT” for “AST”, “GPT” for “GOT”, “10” for “75”, “127” for “81”, “by biochemical analysis (reference value: 49 U/L)” for “relative to control”; assay type: toxicity, organism-based; conditions: in vivo
[8] = tested on: Trypanosoma cruzi; test: as §1, with “as parasite-free brain” for “as reduction in parasitaemia reactivation”, “measured on day 127” for “measured within 1 week”, “post infection” for “post immunosuppression”, “by PCR” for “by Neubauer chamber”; assay type: functional
[9] = tested on: Trypanosoma cruzi; test: Antitrypanosomal activity against Trypanosoma cruzi MHOM/Pe/2011/Arequipa DTU 5 trypomastigotes infected in Balb/c mouse assessed as reduction in Ig-G level in serum at 20 mg/kg, po once daily for 5 consecutive days starting from day 10 post infection measured on day 16 post infection by ELISA; assay type: functional, organism-based
[10] = tested on: Trypanosoma cruzi; test: (§3) Antitrypanosomal activity against Trypanosoma cruzi MHOM/Pe/2011/Arequipa DTU 5 trypomastigotes infected in Balb/c mouse assessed as parasite-free stomach at 20 mg/kg, po pretreated once daily for 5 consecutive days starting from day 10 post infection followed by cyclophosphamide-induced immunosuppression on day 100 post infection measured on day 127 post infection by PCR method; assay type: functional
[11] = Nephrotoxicity in Balb/c mouse infected with Trypanosoma cruzi MHOM/Pe/2011/Arequipa DTU 5 trypomastigotes assessed as decrease in serum uric acid level at 20 mg/kg, po once daily for 5 consecutive days starting from day 10 post infection measured on day 16 post infection relative to control; assay type: toxicity, organism-based; parameters: scale not given: the % may be the effect or the level left; conditions: in vivo
[12] = tested on: Trypanosoma cruzi; test: as §3, with “brain” for “stomach”; assay type: functional
[13] = Toxicity in Balb/c mouse assessed as reduction in body mass at 20 mg/kg, po once daily for 5 consecutive days starting from day 10 post infection relative to control; assay type: organism-based; parameters: scale not given: the % may be the effect or the level left; conditions: in vivo
[14] = tested on: Trypanosoma cruzi; test: Trypanocidal activity against Trypanosoma cruzi MHOM/Pe/2011/Arequipa DTU 5 amastigotes infected in African green monkey Vero cells assessed as reduction in number of amastigotes per infected cells at log -0.41 to 1.7 after 72 hrs by Giemsa-staining based assay; assay type: functional, organism-based
[15] = tested on: Trypanosoma cruzi; test: as §3, with “as parasite-free adipose tissue at 20” for “as parasite-free stomach at 20”, “from day 75 post infection” for “from day 10 post infection”; assay type: functional
[16] = Nephrotoxicity in Balb/c mouse infected with Trypanosoma cruzi MHOM/Pe/2011/Arequipa DTU 5 trypomastigotes assessed as decrease in serum urea level at 20 mg/kg, po once daily for 5 consecutive days starting from day 75 post infection measured on day 127 post infection relative to control; assay type: toxicity, organism-based; conditions: in vivo
[17] = tested on: Trypanosoma cruzi; test: as §1, with “10” for “75”; assay type: functional; parameters: scale not given: the % may be the effect or the level left
[18] = Hepatotoxicity in Balb/c mouse infected with Trypanosoma cruzi MHOM/Pe/2011/Arequipa DTU 5 trypomastigotes assessed as increase in total bilirubin level at 20 mg/kg, po once daily for 5 consecutive days starting from day 75 post infection measured on day 81 post infection relative to control; assay type: toxicity, organism-based; conditions: in vivo
[19] = tested on: Trypanosoma cruzi; test: as §3, with “as parasite-free muscle at 20” for “as parasite-free stomach at 20”, “from day 75 post infection” for “from day 10 post infection”; assay type: functional
[20] = as §2, with “ALT” for “AST”, “GPT” for “GOT”; assay type: toxicity, organism-based; conditions: in vivo
[21] = as §2, with “10” for “75”, “16” for “81”; assay type: toxicity, organism-based; conditions: in vivo
[22] = tested on: Trypanosoma cruzi; test: as §3, with “spleen” for “stomach”; assay type: functional
[23] = tested on: Trypanosoma cruzi; test: as §3, with “lungs” for “stomach”; assay type: functional
[24] = tested on: Trypanosoma cruzi; test: as §3, with “adipose tissue” for “stomach”; assay type: functional
[25] = tested on: Trypanosoma cruzi; test: as §3, with “as parasite-free heart at 20” for “as parasite-free stomach at 20”, “from day 75 post infection” for “from day 10 post infection”; assay type: functional
[26] = tested on: Trypanosoma cruzi; test: as §3, with “oesophagus” for “stomach”; assay type: functional
[27] = tested on: Trypanosoma cruzi; test: Antitrypanosomal activity against Trypanosoma cruzi MHOM/Pe/2011/Arequipa DTU 5 epimastigotes assessed as change in mitochondrial membrane potential at IC25 after 72 hrs by Rho123 staining based flow cytometry relative to control; assay type: functional
[28] = tested on: Trypanosoma cruzi; test: Antitrypanosomal activity against Trypanosoma cruzi MHOM/Pe/2011/Arequipa DTU 5 trypomastigotes infected in Balb/c mouse assessed as reduction in splenomegaly at 20 mg/kg, po once daily for 5 consecutive days starting from day 10 post infection measured on day 127 post infection relative to control; assay type: functional; parameters: scale not given: the % may be the effect or the level left
[29] = tested on: Trypanosoma cruzi; test: as §3, with “muscle” for “stomach”; assay type: functional

Row | SMILES | Activity [1] | Activity [2] | Activity [3] | Activity [4] [mg/dL] | Activity [5] [U/L] | Activity [6] | Activity [7] [U/L] | Activity [8] | Activity [9] | Activity [10] | Activity [11] [%] | Activity [12] | Activity [13] [%] | Activity [14] | Activity [15] | Activity [16] [mg/dL] | Activity [17] | Activity [18] [%] | Activity [19] | Activity [20] [U/L] | other results
1 | CCCCCCCCCCCCCCCCNc1c(N(C)CCCN(C)C)c(=O)c1=O | 21% | Active | 78% | 10 to 20 | 10 to 20 | 55% | 49 | 78% | Active | 67% | > 40 | 67% | > 10 | Active | 78% | 10 to 20 | 26% | 20 | 78% | 20 to 30 | Activity [21]: 10 to 20 U/L; Activity [22]: 67%; Activity [23]: 67%; Activity [24]: 67%; Activity [25]: 78%; Activity [26]: 67%; Activity [27]: -80.61%; Activity [28]: 66%; Activity [29]: 67%
2 | CCCCCCNc1c(N(C)CCCN(C)C)c(=O)c1=O | inactive | inactive | inactive | 10 to 20 | 10 to 20 | Active | 49 | inactive | inactive | inactive | > 40 | inactive | > 10 | Active | inactive | 10 to 20 | inactive | 10 | inactive | 20 to 30 | Activity [21]: 30 to 40 U/L; Activity [22]: inactive; Activity [23]: inactive; Activity [24]: inactive; Activity [25]: inactive; Activity [26]: inactive; Activity [27]: 4.69%; Activity [28]: Active; Activity [29]: inactive
3 | O=C(Cn1ccnc1[N+](=O)[O-])NCc1ccccc1 [BENZNIDAZOLE] | 51% | Active | 55% | 20 to 30 | 20 to 30 | Active | 49 | 55% | Active | 33% | > 40 | 33% | > 10 | Active | 55% | 20 to 30 | 75% | 30 | 55% | 20 to 30 | Activity [21]: > 40 U/L; Activity [22]: 33%; Activity [23]: 33%; Activity [24]: 33%; Activity [25]: 55%; Activity [26]: 33%; Activity [27]: -35.38%; Activity [28]: Active; Activity [29]: 33%
